Values joined by “and” are separate entries in the source; they are usually repeats but may differ in a detail not shown here. Equal values may be shown once. Toxic doses and inconclusive results are not listed.

We go through 20 compounds from PubChem BioAssay AID330 (DTP/NCI, 2004).

The subject of this experiment is P388 leukemia ip, CD2F1 mice, survival T/C. The experiment can be described thus: NCI In Vivo Anticancer Drug Screen. Data for tumor model P388 Leukemia (intraperitoneal) in CD2F1 (CDF1) mice. As to conditions: endpoint: median survival time, higher = longer survival. Put shortly:
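Mice carrying the transplanted tumor received test compound or vehicle. Survival was recorded in each group, and the value is the treated-group measurement divided by that of the vehicle-treated control group.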

[1] abbreviates: dose: 12.5 mg/kg/injection, schedule: Q01DX009 (ip), vehicle: distilled water + Tween-80.
The mark [2] stands for this setting: dose: 25.0 mg/kg/injection, schedule: Q01DX009 (ip), vehicle: distilled water + Tween-80.
[3] abbreviates: dose: 100.0 mg/kg/injection, schedule: Q01DX009 (ip), vehicle: distilled water + Tween-80.
[4] abbreviates: dose: 60.0 mg/kg/injection, schedule: Q01DX005 (ip), vehicle: saline with Tween-80.
[5] abbreviates: dose: 120.0 mg/kg/injection, schedule: Q01DX005 (ip), vehicle: saline with Tween-80.
Setting [6] is: dose: 240.0 mg/kg/injection, schedule: Q01DX005 (ip), vehicle: saline with Tween-80.
The mark [7] stands for this setting: dose: 50.0 mg/kg/injection, schedule: Q04DX003 (ip), vehicle: saline with Tween-80.
The mark [8] stands for this setting: dose: 100.0 mg/kg/injection, schedule: Q01DX001 (ip), vehicle: saline with Tween-80.
Setting [9] is: dose: 200.0 mg/kg/injection, schedule: Q01DX001 (ip), vehicle: saline with Tween-80.
Setting [10] is: dose: 400.0 mg/kg/injection, schedule: Q01DX001 (ip), vehicle: saline with Tween-80.
Where [11] appears, read: dose: 50.0 mg/kg/injection, schedule: Q01DX009 (ip), vehicle: saline with Tween-80.
The mark [12] stands for this setting: dose: 100.0 mg/kg/injection, schedule: Q01DX009 (ip), vehicle: saline with Tween-80.
[13] abbreviates: dose: 200.0 mg/kg/injection, schedule: Q01DX009 (ip), vehicle: saline with Tween-80.
Where [14] appears, read: dose: 400.0 mg/kg/injection, schedule: Q01DX009 (ip), vehicle: saline with Tween-80.
Setting [15] is: dose: 50.0 mg/kg/injection, schedule: Q01DX009 (ip), vehicle: Klucel (hydroxypropylcellulose) (HPC).
Setting [16] is: dose: 100.0 mg/kg/injection, schedule: Q01DX009 (ip), vehicle: Klucel (hydroxypropylcellulose) (HPC).

Take `CCCCCNC(=O)OCc1c(COC(=O)NCCCCC)c(-c2ccc(Cl)c(Cl)c2)n2c1CCC2`: the T/C was 113 % of control (dose: 6.25 mg/kg/injection, schedule: Q01DX009 (ip), vehicle: distilled water + Tween-80); 101 % of control and 110 % of control under setting [1]; 108 % of control and 116 % of control under setting [2]; 165 % of control under setting [3].

In the case of `Cc1cccc(NC(=O)C(=O)C(C#N)c2c(Cl)cccc2Cl)c1C` (stereo not drawn), the T/C runs as follows: under setting [4], 102 % of control; under setting [5], 96 % of control; under setting [6], 100 % of control.

Turning to `CSC(=S)NN=C1CCCCC1`, the T/C is, setting by setting: (dose: 0.78 mg/kg/injection, schedule: Q01DX009 (ip), vehicle: saline with Tween-80) 97 % of control; (dose: 1.56 mg/kg/injection, schedule: Q01DX009 (ip), vehicle: saline with Tween-80) 108 % of control; (dose: 3.13 mg/kg/injection, schedule: Q01DX009 (ip), vehicle: saline with Tween-80) 105 % of control; (dose: 6.25 mg/kg/injection, schedule: Q01DX009 (ip), vehicle: saline with Tween-80) 98 % of control; (dose: 12.5 mg/kg/injection, schedule: Q01DX009 (ip), vehicle: saline with Tween-80) 113 % of control.

In the case of `Cc1ccc(S(=O)(=O)OCCN(CCOS(=O)(=O)c2ccc(C)cc2)c2ccc(N=O)cc2)cc1`, the T/C by setting is: (dose: 25.0 mg/kg/injection, schedule: Q04DX003 (ip), vehicle: saline with Tween-80) 163 % of control; under setting [7], 168 % of control; (dose: 100.0 mg/kg/injection, schedule: Q04DX003 (ip), vehicle: saline sonified) 122 % of control; (dose: 100.0 mg/kg/injection, schedule: Q04DX003 (ip), vehicle: saline with Tween-80) 177 % of control.

Regarding `COc1ccccc1NC(=O)C1=C(C)NC(C)=C(C(=O)Nc2ccccc2C)C1c1ccccc1` (stereo not drawn), the T/C by setting is: under setting [4], 100 % of control; under setting [5], 104 % of control; under setting [6], 89 % of control.

As to `N#CCCN(CCC#N)c1ccc(/C=C2/C=C(c3ccccc3)OC2=O)cc1`, the T/C by setting is: under setting [8], 97 % of control; under setting [9], 94 % of control; under setting [10], 90 % of control.

In the case of `COc1ccc2c(c1)[nH]c1c(C)c3ccncc3c(C)c12`, the T/C is 95 % of control (dose: 18.75 mg/kg/injection, schedule: Q04DX002 (ip), vehicle: Klucel (hydroxypropylcellulose) (HPC)); 92 % of control (dose: 37.5 mg/kg/injection, schedule: Q04DX002 (ip), vehicle: Klucel (hydroxypropylcellulose) (HPC)); 90 % of control (dose: 75.0 mg/kg/injection, schedule: Q04DX002 (ip), vehicle: Klucel (hydroxypropylcellulose) (HPC)); 100 % of control (dose: 150.0 mg/kg/injection, schedule: Q04DX002 (ip), vehicle: Klucel (hydroxypropylcellulose) (HPC)).

Consider `Cc1cc(C)c2nccc(/C=C/c3ccc(N(C)C)cc3)c2c1`, for which the T/C was 110 % of control under setting [11], 108 % of control under setting [12], 116 % of control under setting [13] and 91 % of control under setting [14].

On to `N=C(N)c1ccc(NC(=S)Nc2ccc(C(=N)N)cc2)cc1`, for which the T/C was 101 % of control (dose: 6.25 mg/kg/injection, schedule: Q01DX009 (ip), vehicle: saline); 99 % of control (dose: 12.5 mg/kg/injection, schedule: Q01DX009 (ip), vehicle: saline); 99 % of control (dose: 25.0 mg/kg/injection, schedule: Q01DX009 (ip), vehicle: saline).

In the case of `CCC(CCC(C)C1CCC2C3CC=C4CC(O)CCC4(C)C3CCC12C)C(C)C` (stereo not drawn) (tested in a mixture with another compound), the T/C was 105 % of control under setting [15] and 90 % of control under setting [16].

Regarding `COc1ccc2c(c1O)N(C(C)=O)C1C3C(O)OCC=C4CN5CCC21C5CC43` (stereo not drawn), the T/C runs as follows: (dose: 4.5 mg/kg/injection, schedule: Q01DX009 (ip), vehicle: Klucel (hydroxypropylcellulose) (HPC)) 100 % of control; (dose: 5.0 mg/kg/injection, schedule: Q01DX009 (ip), vehicle: saline) 116 % of control; (dose: 9.0 mg/kg/injection, schedule: Q01DX009 (ip), vehicle: Klucel (hydroxypropylcellulose) (HPC)) 103 % of control; (dose: 10.0 mg/kg/injection, schedule: Q01DX009 (ip), vehicle: saline) 111 % of control; (dose: 18.0 mg/kg/injection, schedule: Q01DX009 (ip), vehicle: Klucel (hydroxypropylcellulose) (HPC)) 101 % of control; (dose: 20.0 mg/kg/injection, schedule: Q01DX009 (ip), vehicle: saline) 118 % of control. Besides, the T/C runs as follows: (dose: 36.0 mg/kg/injection, schedule: Q01DX009 (ip), vehicle: Klucel (hydroxypropylcellulose) (HPC)) 110 % of control; (dose: 72.0 mg/kg/injection, schedule: Q01DX009 (ip), vehicle: Klucel (hydroxypropylcellulose) (HPC)) 104 % of control.

In the case of `CCCCCCCCCCCCCCCCCC1=NC(C)CC(C)(C)O1` (stereo not drawn), the T/C runs as follows: (dose: 100.0 mg/kg/injection, schedule: Q01DX009 (ip), vehicle: saline) 95 % of control; (dose: 200.0 mg/kg/injection, schedule: Q01DX009 (ip), vehicle: saline) 104 % of control.

Regarding `Nc1nc(N)nc(CCC(Cl)(Cl)Cl)n1`, the T/C was 100 % of control under setting [1]; 100 % of control under setting [2]; 95 % of control (dose: 50.0 mg/kg/injection, schedule: Q01DX009 (ip), vehicle: distilled water + Tween-80); 95 % of control under setting [3]; 100 % of control (dose: 200.0 mg/kg/injection, schedule: Q01DX009 (ip), vehicle: distilled water + Tween-80).

`O=C(NCCF)Oc1cc(Cl)c(Cl)cc1Cl`: the T/C is, setting by setting: (dose: 6.25 mg/kg/injection, schedule: Q01DX005 (ip), vehicle: Klucel (hydroxypropylcellulose) (HPC)) 106 % of control; (dose: 12.5 mg/kg/injection, schedule: Q01DX005 (ip), vehicle: Klucel (hydroxypropylcellulose) (HPC)) 107 % of control and 120 % of control.

Regarding `CCOC(=O)Nc1c(C)noc1NC(C)=O`, the T/C by setting is: under setting [8], 100 % of control; under setting [9], 100 % of control; under setting [10], 95 % of control.

On to `O=NN(CCF)C(=O)NC12CC3CC(CC(C3)C1)C2`, for which the T/C (dose: 22.0 mg/kg/injection, schedule: Q04DX003 (ip), vehicle: saline with Tween-80) was 175 % of control; the T/C (dose: 33.0 mg/kg/injection, schedule: Q04DX003 (ip), vehicle: saline with Tween-80) is 195 % of control; the T/C under setting [7] was 225 % of control; the T/C (dose: 75.0 mg/kg/injection, schedule: Q04DX003 (ip), vehicle: saline with Tween-80) was 240 % of control; the T/C (dose: 100.0 mg/kg/injection, schedule: Q04DX003 (ip), vehicle: Klucel (hydroxypropylcellulose) (HPC)) is 259 % of control.

Consider `Cc1sc2ccccc2[n+]1CCC(=O)O`, for which the T/C was 100 % of control under setting [11], 100 % of control under setting [12], 98 % of control under setting [13] and 98 % of control under setting [14].

Regarding `O=C(NC(Cc1ccc(Cl)cc1)C(=O)O)c1ccccc1` (stereo not drawn), the T/C (dose: 25.0 mg/kg/injection, schedule: Q01DX009 (ip), vehicle: other) is 98 % of control; the T/C (dose: 50.0 mg/kg/injection, schedule: Q01DX009 (ip), vehicle: other) was 97 % of control; the T/C (dose: 100.0 mg/kg/injection, schedule: Q01DX009 (ip), vehicle: other) is 106 % of control.

`[Cl][Sn]1([Cl])[CH2]CCCCCC[CH2][Sn]([Cl])([Cl])[CH2]CCCCCC[CH2]1`: the T/C was 92 % of control (dose: 50.0 mg/kg/injection, schedule: Q01DX005 (ip), vehicle: saline with Tween-80) and 92 % of control (dose: 100.0 mg/kg/injection, schedule: Q01DX005 (ip), vehicle: saline with Tween-80).

In the case of `COc1ccc(-c2c(C#N)cnc(C)c2C)c(O)c1OC`, the T/C runs as follows: (dose: 25.0 mg/kg/injection, schedule: Q01DX009 (ip), vehicle: Klucel (hydroxypropylcellulose) (HPC)) 96 % of control; under setting [15], 92 % of control; under setting [16], 96 % of control; (dose: 200.0 mg/kg/injection, schedule: Q01DX009 (ip), vehicle: Klucel (hydroxypropylcellulose) (HPC)) 90 % of control.
